Results published in paper PMC9318133 (International Journal of Molecular Sciences, 2022).

Tested on: fEPSP of CA1 area of mouse hippocampal slice
Test: Electrophysiological recording of fEPSP in hippocampal slices
Assay type: cell-based
Settings: AM-251 2 µM; JWH-175 and JWH-018 both at 1 µM; data not shown
Protocol: Procedures for tissue preparation are the same as those described by Ossato et al., 2016 [45]. In brief, after mouse decapitation, the head was immediately chilled in refrigerated artificial cerebrospinal fluid (aCSF, 0 °C) of the following composition (in mM): NaCl, 126; KCl, 2; KH2PO4, 1.25; NaHCO3, 26; MgSO4, 2.0; CaCl2, 2.5; d-glucose, 10. After 1 min, the brain was extracted to isolate the hippocampus and then placed in ice-cold artificial cerebrospinal fluid (aCSF). All solutions were saturated with 95% O2/5% CO2. Transverse hippocampal slices (425 μm thick) were cut with a tissue chopper and then placed for almost 90 min in a Haas-style incubation chamber for recovery before recording.
A single slice was transferred into a submerged-type recording chamber (3 mL total volume) and continuously superfused (3.0 mL/min) with warmed (32–33 °C) aCSF. WINLTP 2.10 computer software was used for stimulus triggering, PC recording, and analysis. Synaptic responses of CA1 pyramidal neurons were elicited by electrical stimulation of the Schaffer collateral/commissural pathway. Single stimulation pulses (80 µs duration; 0.05 Hz) were delivered by mean of a concentric bipolar electrode (o.d. 125 μm, FHC, USA) connected to a Grass S11 stimulator driving a PSIU6 constant current stimulus isolation unit. To record the fEPSPs, borosilicate glass electrodes fabricated using a microelectrode puller (P97, Sutter Instruments) and filled with aCSF (1.5 ± 0.5 MΩ), inserted in the distal third of the stratum radiatum and 200–300 µm away from stimulating electrodes, were used. The maximal fEPSPs response was reached by adjusting the recording electrode depth. Recorded potentials were amplified (Axoprobe 1A DC-coupled—Cyberamp 320, Molecular Devices, Sunnyvale, CA, USA) and filtered (5.0 kHz) prior to A/D conversion. Upon 10 min of stable synaptic response, a stimulus–response curve (SRC) was generated as previously described to extrapolate a stimulation intensity evoking 70% of maximal fEPSP, to be used throughout the experiment. […] To investigate whether the vehicle had any effect on synaptic activity, the superfusion inlet was switched to a reservoir containing aCSF plus the amount of vehicle present for the corresponding drug concentration (sham application), before switching to the solution also including the drug, for comparison. All reservoirs and tubing were on glass or Teflon to avoid the capturing of cannabinoids by plastic or silicon parts.
We analyzed data from in vitro recordings as previously described. […] Effect of treatment was considered steady state when stable +/− 5% for 10 min.

Cc1c(C(=O)NN2CCCCC2)nn(-c2ccc(Cl)cc2Cl)c1-c1ccc(I)cc1 [AM-251, 1-(2,4-dichlorophenyl)-5-(4-iodophenyl)-4-methyl-N-1-piperidinyl-1H-pyrazole-3-carboxamide]
effect of AM-251 perfusion on the inhibitory effect of JWH-175 and JWH-018 on fEPSP: completely prevented
